As a reminder, the IC50 is the concentration that inhibits the measured activity by half. A word on the Ki: it is the equilibrium dissociation constant of an inhibitor or competing ligand from its target.

For 23 compounds, IC50 and Ki results are on record in ChEMBL document CHEMBL1909046, “DrugMatrix in vitro pharmacology data”.

The target of data set [1] is T1, Type-2 angiotensin II receptor (Homo sapiens, UniProt P50052).
T1 sequence (P50052 whole entry): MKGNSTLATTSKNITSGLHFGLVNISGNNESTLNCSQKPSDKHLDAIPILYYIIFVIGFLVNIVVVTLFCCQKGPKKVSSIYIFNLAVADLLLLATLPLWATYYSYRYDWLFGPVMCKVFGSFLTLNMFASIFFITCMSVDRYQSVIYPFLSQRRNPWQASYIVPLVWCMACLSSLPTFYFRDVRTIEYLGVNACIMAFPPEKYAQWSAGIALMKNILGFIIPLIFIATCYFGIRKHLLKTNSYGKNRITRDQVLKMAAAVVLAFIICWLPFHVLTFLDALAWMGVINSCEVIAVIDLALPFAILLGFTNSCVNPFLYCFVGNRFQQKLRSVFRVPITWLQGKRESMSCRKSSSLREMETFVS
The data set is described as follows: biochemical. The class given is cell-based, CHO-K1.

For data set [2], the target named is 5-hydroxytryptamine receptor 2B (Homo sapiens, UniProt P41595). In kind it is cell membranes, CHO-K1, Membrane. As to conditions: for Ki: read-out: Ki.
5-hydroxytryptamine receptor 2B, sequence (P41595 whole entry): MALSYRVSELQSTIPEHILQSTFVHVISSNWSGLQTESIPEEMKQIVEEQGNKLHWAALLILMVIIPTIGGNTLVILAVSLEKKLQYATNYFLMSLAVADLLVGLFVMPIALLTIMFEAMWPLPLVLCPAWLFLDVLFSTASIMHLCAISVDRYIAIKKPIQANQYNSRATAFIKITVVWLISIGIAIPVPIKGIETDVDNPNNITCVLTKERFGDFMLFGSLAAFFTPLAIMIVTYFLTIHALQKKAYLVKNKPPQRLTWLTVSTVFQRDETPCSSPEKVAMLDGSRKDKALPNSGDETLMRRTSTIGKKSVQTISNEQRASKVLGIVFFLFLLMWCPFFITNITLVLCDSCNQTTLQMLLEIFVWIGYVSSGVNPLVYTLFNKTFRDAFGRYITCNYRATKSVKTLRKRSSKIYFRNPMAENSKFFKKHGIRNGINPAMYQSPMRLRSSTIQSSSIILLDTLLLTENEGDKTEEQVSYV
For data set [3], the target named is T2, Vasoactive intestinal polypeptide receptor 1 (Homo sapiens, UniProt P32241).
T2 sequence (P32241 whole entry): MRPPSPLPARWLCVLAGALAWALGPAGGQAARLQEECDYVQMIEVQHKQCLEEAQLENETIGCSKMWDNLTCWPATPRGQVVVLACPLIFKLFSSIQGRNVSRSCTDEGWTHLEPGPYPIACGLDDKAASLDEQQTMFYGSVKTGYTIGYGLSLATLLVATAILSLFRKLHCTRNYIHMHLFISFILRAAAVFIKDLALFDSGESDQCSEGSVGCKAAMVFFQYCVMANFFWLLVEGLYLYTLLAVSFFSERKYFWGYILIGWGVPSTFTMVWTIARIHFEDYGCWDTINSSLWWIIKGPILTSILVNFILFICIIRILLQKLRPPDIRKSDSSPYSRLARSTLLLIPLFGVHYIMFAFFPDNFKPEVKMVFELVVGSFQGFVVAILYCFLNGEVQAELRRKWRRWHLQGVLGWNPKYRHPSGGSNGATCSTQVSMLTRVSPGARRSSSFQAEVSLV
In kind it is cell membranes, Membrane. As to conditions: ht-29.

The target in the next data set is Insulin receptor (Rattus norvegicus, UniProt P15127). In kind it is cell membranes, Wistar, Liver, Membrane.
Insulin receptor, sequence (P15127 27-759 limits assumed): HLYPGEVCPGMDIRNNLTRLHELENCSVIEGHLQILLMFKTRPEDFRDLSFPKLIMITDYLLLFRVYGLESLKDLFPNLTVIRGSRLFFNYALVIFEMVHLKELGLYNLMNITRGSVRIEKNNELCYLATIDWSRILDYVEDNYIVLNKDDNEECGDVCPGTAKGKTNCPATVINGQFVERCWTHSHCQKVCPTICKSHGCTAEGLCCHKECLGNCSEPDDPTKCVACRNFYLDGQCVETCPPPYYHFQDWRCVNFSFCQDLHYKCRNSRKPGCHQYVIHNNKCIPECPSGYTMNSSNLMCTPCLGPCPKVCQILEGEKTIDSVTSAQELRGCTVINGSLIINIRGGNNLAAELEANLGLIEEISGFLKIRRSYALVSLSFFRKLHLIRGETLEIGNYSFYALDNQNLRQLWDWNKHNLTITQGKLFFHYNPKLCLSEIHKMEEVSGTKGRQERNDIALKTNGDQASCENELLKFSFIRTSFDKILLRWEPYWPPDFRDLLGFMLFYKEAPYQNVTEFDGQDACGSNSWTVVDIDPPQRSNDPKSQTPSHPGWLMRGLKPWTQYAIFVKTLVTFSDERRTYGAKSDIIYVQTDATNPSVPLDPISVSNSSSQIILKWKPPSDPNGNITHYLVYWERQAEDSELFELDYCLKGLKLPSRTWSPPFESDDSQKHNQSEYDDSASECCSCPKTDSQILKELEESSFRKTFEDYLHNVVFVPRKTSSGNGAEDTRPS
Insulin receptor, sequence (P15127 764-1383 limits assumed): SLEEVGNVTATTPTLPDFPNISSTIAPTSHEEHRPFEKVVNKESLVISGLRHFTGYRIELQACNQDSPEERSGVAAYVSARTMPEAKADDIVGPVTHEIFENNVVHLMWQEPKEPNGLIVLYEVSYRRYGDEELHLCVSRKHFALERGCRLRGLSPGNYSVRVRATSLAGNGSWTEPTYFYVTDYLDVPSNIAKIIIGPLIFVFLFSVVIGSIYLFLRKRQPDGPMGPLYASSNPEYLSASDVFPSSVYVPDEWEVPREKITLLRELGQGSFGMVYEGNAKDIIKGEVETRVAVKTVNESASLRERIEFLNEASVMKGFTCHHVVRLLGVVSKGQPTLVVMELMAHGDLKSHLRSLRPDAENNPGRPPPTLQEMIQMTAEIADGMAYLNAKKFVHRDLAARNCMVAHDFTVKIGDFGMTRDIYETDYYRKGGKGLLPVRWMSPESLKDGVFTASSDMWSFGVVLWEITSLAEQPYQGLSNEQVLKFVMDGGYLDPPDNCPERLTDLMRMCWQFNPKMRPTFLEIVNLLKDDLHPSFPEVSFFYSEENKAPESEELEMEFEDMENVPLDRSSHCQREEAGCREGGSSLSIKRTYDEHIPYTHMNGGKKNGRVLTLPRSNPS
In data set [4] the target is T3, Muscarinic acetylcholine receptor M5 (Homo sapiens, UniProt P08912).
T3 sequence (P08912 whole entry): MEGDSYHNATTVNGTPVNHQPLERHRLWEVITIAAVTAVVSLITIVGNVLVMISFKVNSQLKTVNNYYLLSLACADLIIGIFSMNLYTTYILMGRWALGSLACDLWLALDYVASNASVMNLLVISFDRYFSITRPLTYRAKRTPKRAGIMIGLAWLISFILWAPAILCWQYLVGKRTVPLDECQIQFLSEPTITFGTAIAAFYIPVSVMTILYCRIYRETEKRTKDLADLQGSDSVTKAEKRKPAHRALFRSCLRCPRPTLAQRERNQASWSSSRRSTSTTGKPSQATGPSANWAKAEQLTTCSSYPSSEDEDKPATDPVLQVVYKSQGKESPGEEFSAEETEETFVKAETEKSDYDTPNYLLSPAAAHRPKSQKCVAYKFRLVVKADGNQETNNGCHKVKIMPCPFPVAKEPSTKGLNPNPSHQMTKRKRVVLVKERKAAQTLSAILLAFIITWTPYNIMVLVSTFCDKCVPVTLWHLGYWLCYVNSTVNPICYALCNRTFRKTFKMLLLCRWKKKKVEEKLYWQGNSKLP
The class given is cell membranes, CHO-K1, Membrane.

Data set [5] concerns the target Voltage-gated inwardly rectifying potassium channel KCNH2 (Homo sapiens, UniProt Q12809). As to conditions: hek293.
Note: in other assays of this panel Not Active means under 50% inhibition at 10 µM.

Voltage-gated inwardly rectifying potassium channel KCNH2, sequence (Q12809 whole entry): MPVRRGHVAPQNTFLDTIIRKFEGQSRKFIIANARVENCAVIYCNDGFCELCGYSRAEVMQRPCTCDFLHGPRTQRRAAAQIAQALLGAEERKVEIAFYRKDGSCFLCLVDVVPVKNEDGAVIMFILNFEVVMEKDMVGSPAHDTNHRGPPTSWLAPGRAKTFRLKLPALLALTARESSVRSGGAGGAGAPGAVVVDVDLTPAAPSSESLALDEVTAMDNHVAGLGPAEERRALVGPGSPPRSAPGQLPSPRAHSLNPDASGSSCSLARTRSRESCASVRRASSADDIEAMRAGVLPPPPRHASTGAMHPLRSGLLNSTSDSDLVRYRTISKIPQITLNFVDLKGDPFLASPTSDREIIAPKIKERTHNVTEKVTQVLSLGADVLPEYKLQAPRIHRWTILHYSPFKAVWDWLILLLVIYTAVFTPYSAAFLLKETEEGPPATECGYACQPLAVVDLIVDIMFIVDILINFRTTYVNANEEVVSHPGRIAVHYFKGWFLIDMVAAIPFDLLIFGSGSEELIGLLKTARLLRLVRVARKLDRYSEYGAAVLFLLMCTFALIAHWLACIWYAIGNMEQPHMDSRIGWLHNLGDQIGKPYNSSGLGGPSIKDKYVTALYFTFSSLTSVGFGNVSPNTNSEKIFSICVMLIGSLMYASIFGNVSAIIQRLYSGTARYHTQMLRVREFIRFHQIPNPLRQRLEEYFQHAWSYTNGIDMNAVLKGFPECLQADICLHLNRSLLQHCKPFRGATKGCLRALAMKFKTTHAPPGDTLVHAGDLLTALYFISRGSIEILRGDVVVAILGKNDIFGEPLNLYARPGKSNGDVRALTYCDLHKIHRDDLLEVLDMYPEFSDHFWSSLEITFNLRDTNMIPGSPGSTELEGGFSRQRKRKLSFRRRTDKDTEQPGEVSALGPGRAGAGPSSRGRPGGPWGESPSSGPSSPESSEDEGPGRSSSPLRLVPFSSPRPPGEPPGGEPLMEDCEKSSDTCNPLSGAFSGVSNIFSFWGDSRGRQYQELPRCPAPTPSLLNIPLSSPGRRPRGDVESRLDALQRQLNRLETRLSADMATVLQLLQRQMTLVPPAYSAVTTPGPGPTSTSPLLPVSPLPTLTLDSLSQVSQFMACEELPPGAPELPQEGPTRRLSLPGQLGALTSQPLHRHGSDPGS

Take `CCCCC(=O)N(Cc1ccc(-c2ccccc2-c2nnn[nH]2)cc1)[C@H](C(=O)O)C(C)C`: the IC50 result (in data set [1] (cho-k1); in data set [2] (cho-k1); in data set [3]; against Insulin receptor; in data set [4] (cho-k1); in data set [5]) was “Not Active” each time. The Ki entry in data set [5] is listed as “Not Active”.

As to `O=C(O)COc1ccc(C(=O)c2cccs2)c(Cl)c1Cl`, the IC50 entry (in data set [1] (cho-k1); in data set [2] (cho-k1); in data set [3]; against Insulin receptor; in data set [4] (cho-k1); in data set [5]) was “Not Active” throughout. In data set [5], the Ki result is “Not Active”.

Take `CN1[C@@H]2CC[C@H]1C[C@@H](OC(c1ccccc1)c1ccccc1)C2` [BENZTROPINE]: the IC50 entry in data set [1] (cho-k1) was “Not Active”; in data set [2] (read-out: IC50), 0.2 µM; in data set [3] it was “Not Active”; on Insulin receptor, “Not Active”; in data set [5], “Not Active”. Moreover, the values for the Ki in data set [2] and in data set [5] were 0.127 µM and “Not Active”, respectively.

For the compound `C[C@@](Cc1ccc(O)c(O)c1)(NN)C(=O)O.O` [CARBIDOPA], the IC50 result (in data set [1] (cho-k1); in data set [2] (cho-k1); in data set [3]; at Insulin receptor; in data set [4] (cho-k1); in data set [5]) was “Not Active” each time. Also, the Ki result in data set [5] is on record as “Not Active”.

`CN1CCN(C2=Nc3cc(Cl)ccc3Nc3ccccc32)CC1` [CLOZAPINE]: the IC50 entry (in data set [1] (cho-k1); in data set [3]; against Insulin receptor) was “Not Active” throughout.

Take `CC(C)NC[C@@H](O)COc1cccc2ccccc12` [DEXPROPRANOLOL]: the IC50 result (in data set [1] (cho-k1); in data set [3]; against Insulin receptor; in data set [4] (cho-k1); in data set [5]) was “Not Active” throughout. The Ki entry in data set [5] is recorded as “Not Active”.

In the case of `CC(C)NC[C@H](O)COc1cccc2ccccc12` [LEVOPROPRANOLOL], the IC50 result (in data set [1] (cho-k1); in data set [3]; at Insulin receptor; in data set [4] (cho-k1); in data set [5]) was “Not Active” throughout. In data set [5], the Ki entry was “Not Active”.

For `O=C(O)CCCCC1CCSS1` (stereo not drawn) [LIPOIC ACID, ALPHA], the IC50 result (in data set [1] (cho-k1); in data set [2] (cho-k1); in data set [3]; on Insulin receptor; in data set [4] (cho-k1); in data set [5]) was “Not Active” throughout. In addition, the inhibition constant Ki entry in data set [5] was “Not Active”.

With `CN(C)C(=O)C(CCN1CCC(O)(c2ccc(Cl)cc2)CC1)(c1ccccc1)c1ccccc1` [LOPERAMIDE], the IC50 entry in data set [1] (cho-k1) was “Not Active”; in data set [2] (read-out: IC50), 4.1 µM; in data set [3], “Not Active”; against Insulin receptor, “Not Active”; in data set [4] (cho-k1), “Not Active”; in data set [5], “Not Active”. Further, the Ki in data set [2] was 2.61 µM; in data set [5], “Not Active”.

For the compound `Clc1ccc(COC(Cn2ccnc2)c2ccc(Cl)cc2Cl)c(Cl)c1` (configuration not stated) [MICONAZOLE], the IC50 in data set [1] (read-out: IC50) is 24 µM; in data set [2] (read-out: IC50), 5.55 µM; in data set [3] it was “Not Active”; at Insulin receptor, “Not Active”; in data set [4] (cho-k1) it was “Not Active”; in data set [5], “Not Active”. In addition, the Ki is 7.78 µM in data set [1] (read-out: Ki), 3.53 µM in data set [2] and “Not Active” in data set [5].

In the case of `Oc1ccc2c3c1O[C@H]1[C@@H](O)CC[C@@]4(O)[C@@H](C2)N(CC2CCC2)CC[C@]314` [NALBUPHINE], the IC50 entry (in data set [1] (cho-k1); in data set [2] (cho-k1); in data set [3]; at Insulin receptor; in data set [4] (cho-k1); in data set [5]) was “Not Active” in each case. Further, the Ki result in data set [5] is on record as “Not Active”.

On to `C[C@]12C=CC(=O)C=C1CC[C@@H]1[C@@H]2C(=O)C[C@@]2(C)[C@H]1CC[C@]2(O)C(=O)CO` [PREDNISONE], for which the IC50 result (in data set [1] (cho-k1); in data set [2] (cho-k1); in data set [3]; against Insulin receptor; in data set [4] (cho-k1); in data set [5]) was “Not Active” throughout. Besides, in data set [5], the Ki result is recorded as “Not Active”.

Turning to `OCCOCCN1CCN(C2=Nc3ccccc3Sc3ccccc32)CC1` [QUETIAPINE], the concentration for half-maximal inhibition (IC50) result (in data set [1] (cho-k1); in data set [3]; at Insulin receptor) was “Not Active” throughout.

In the case of `COC(=O)[C@H]1[C@H]2C[C@@H]3c4[nH]c5cc(OC)ccc5c4CCN3C[C@H]2C[C@@H](OC(=O)c2cc(OC)c(OC)c(OC)c2)[C@@H]1OC` [RESERPINE], the IC50 entry (in data set [1] (cho-k1); in data set [2] (cho-k1); in data set [3]; on Insulin receptor; in data set [4] (cho-k1); in data set [5]) was “Not Active” in each case. The Ki entry in data set [5] is “Not Active”.

Regarding `O=C(O)c1ccccc1O` [SALICYLIC ACID], the IC50 entry (in data set [1] (cho-k1); in data set [2] (cho-k1); in data set [3]; on Insulin receptor; in data set [4] (cho-k1); in data set [5]) was “Not Active” throughout. The Ki entry in data set [5] is given as “Not Active”.

As to `C[S+]([O-])c1ccc(-c2nc(-c3ccncc3)c(-c3ccc(F)cc3)[nH]2)cc1` (configuration not stated) [SB-203580], the IC50 entry (in data set [1] (cho-k1); in data set [2] (cho-k1); in data set [3]; at Insulin receptor; in data set [4] (cho-k1)) was “Not Active” throughout.

For the compound `CC1CCC(NC(=O)N(CCCl)N=O)CC1` (configuration not stated) [SEMUSTINE], the IC50 result (in data set [1] (cho-k1); in data set [2] (cho-k1); in data set [3]; against Insulin receptor; in data set [4] (cho-k1); in data set [5]) was “Not Active” throughout. Besides, the Ki entry in data set [5] is “Not Active”.

With `O=C1C[C@@H]2OCC=C3CN4CC[C@]56c7ccccc7N1[C@H]5[C@H]2[C@H]3C[C@H]46` [STRYCHNINE], the IC50 result (in data set [1] (cho-k1); in data set [2] (cho-k1); in data set [3]; on Insulin receptor; in data set [4] (cho-k1); in data set [5]) was “Not Active” each time. In addition, the Ki entry in data set [5] is listed as “Not Active”.

Turning to `C[N+](C)(C)CCOC(=O)CCC(=O)OCC[N+](C)(C)C.[Cl-].[Cl-]` [SUCCINYLCHOLINE CHLORIDE], the IC50 result (in data set [1] (cho-k1); in data set [2] (cho-k1); in data set [3]; at Insulin receptor; in data set [4] (cho-k1); in data set [5]) was “Not Active” each time. Also, the Ki entry in data set [5] is “Not Active”.

Take `Nc1ccc(S(=O)(=O)NC(=O)c2ccccc2)cc1` [SULFABENZAMIDE]: the IC50 entry (in data set [1] (cho-k1); in data set [2] (cho-k1); in data set [3]; at Insulin receptor; in data set [4] (cho-k1); in data set [5]) was “Not Active” each time. The Ki result in data set [5] was “Not Active”.

In the case of `CCCCCCCCNC(C)C(O)c1ccc(SC(C)C)cc1` (configuration not stated) [SULOCTIDIL], the IC50 entry in data set [1] (cho-k1) was “Not Active”; in data set [2] (read-out: IC50) it was 0.939 µM; in data set [3], “Not Active”; against Insulin receptor it was “Not Active”; in data set [4] (read-out: IC50) it was 4.49 µM; in data set [5], “Not Active”. Moreover, the Ki in data set [2] is 0.598 µM; in data set [4] (read-out: Ki), 3.22 µM; in data set [5], “Not Active”.

Consider `O=c1[nH]c(=O)n(C2CCCO2)cc1F` (configuration not stated) [TEGAFUR], for which the IC50 result (in data set [1] (cho-k1); in data set [2] (cho-k1); in data set [3]; against Insulin receptor; in data set [4] (cho-k1); in data set [5]) was “Not Active” in each case. For the same compound, the Ki result in data set [5] is listed as “Not Active”.

`CN1CCN(CCCN2c3ccccc3Sc3ccc(C(F)(F)F)cc32)CC1` [TRIFLUOPERAZINE]: the IC50 entry (in data set [1] (cho-k1); in data set [2] (cho-k1); in data set [3]; on Insulin receptor; in data set [4] (cho-k1)) was “Not Active” each time.
